# Results published in PubChem BioAssay (NCI).
# Several values for one entry are separate records, joined by “and”; a condition that tells them apart may be missing. Equal entries are not always repeated.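 How tested: cells in 96-well plates exposed to compound for 48 hours at five concentrations. Here, GI50 denotes the concentration required for 50% inhibition of growth. TGI denotes the concentration required for complete inhibition of growth.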
# What was measured:
# Assay in all cases: DTP human tumour cell line panel, 48 h
# HCT-15 colon = test system: HCT-15 colon
# OVCAR-4 ovarian = test system: OVCAR-4 ovarian
# UO-31 renal = test system: UO-31 renal
# HOP-92 NSCLC = test system: HOP-92 NSCLC
# M14 melanoma = test system: M14 melanoma
# PC-3 prostate = test system: PC-3 prostate
# UACC-257 melanoma = test system: UACC-257 melanoma
# DU-145 prostate = test system: DU-145 prostate
# OVCAR-5 ovarian = test system: OVCAR-5 ovarian
# EKVX NSCLC = test system: EKVX NSCLC
SMILES,GI50 (HCT-15 colon),TGI (HCT-15 colon),GI50 (OVCAR-4 ovarian),TGI (OVCAR-4 ovarian),GI50 (UO-31 renal),TGI (UO-31 renal),GI50 (HOP-92 NSCLC),TGI (HOP-92 NSCLC),GI50 (M14 melanoma),TGI (M14 melanoma),GI50 (PC-3 prostate),TGI (PC-3 prostate),GI50 (UACC-257 melanoma),TGI (UACC-257 melanoma),GI50 (DU-145 prostate),TGI (DU-145 prostate),GI50 (OVCAR-5 ovarian),TGI (OVCAR-5 ovarian),GI50 (EKVX NSCLC),TGI (EKVX NSCLC)
CC(=O)OC(C)(C)/C(C)=C/C(=O)O[C@H]1C(=O)O[C@@H]2C[C@H]3[C@H](C)C(=O)C(O[C@@H]4O[C@H](CO)[C@@H](O)[C@H](O)[C@H]4O)=C[C@]3(C)[C@H]3[C@@H](O)[C@H](O)[C@@]4(C(=O)O)OC[C@]32[C@@H]14,> 100 µM,> 100 µM,> 100 µM,> 100 µM,> 100 µM,> 100 µM,65.7 µM,> 100 µM,> 100 µM,> 100 µM,> 100 µM,> 100 µM,> 100 µM,> 100 µM,> 100 µM,> 100 µM,> 100 µM,> 100 µM,> 100 µM,> 100 µM
CNC(=O)c1ccccc1Nc1nc(Nc2cc(OC)c(OC)c(OC)c2)ncc1Br,0.0283 µM,7.75 µM,0.0287 µM,2.4 µM,< 0.014 µM,0.0849 µM,< 0.0152 µM,0.0874 µM,0.0191 µM,1.38 µM,0.131 µM,10.9 µM,0.0328 µM,3.47 µM,0.0348 µM,42.1 µM,0.0321 µM,31.7 µM,0.0308 µM,1.01 µM
Nc1nc2c(ncn2C2C=CC(CO)C2)c(=O)[nH]1 (stereo not drawn),,> 100 µM,,> 100 µM,,> 100 µM,,> 100 µM,,> 100 µM,,> 100 µM,,> 100 µM,,> 100 µM,,> 100 µM,,> 100 µM
CCC(=C/[C@H](C)C/C=C/C(C)=C/[C@@H](C)C(=O)[C@@H](C)[C@H](O)[C@@H](C)CC)/C=C/[C@@H]1OC(=O)C=C[C@H]1C,< 0.01 µM,0.396 µM,< 0.01 µM,1.5 µM,< 0.01 µM,,< 0.01 µM,< 0.01 µM,< 0.01 µM,0.0103 µM,< 0.01 µM,1.52 µM,< 0.01 µM,,< 0.01 µM,4.42 µM,< 0.01 µM,1.8 µM,< 0.01 µM,13 µM
Nc1nnnn1CCO,,> 100 µM,,> 100 µM,,> 100 µM,,> 100 µM,,> 100 µM,,> 100 µM,,> 100 µM,,> 100 µM,,> 100 µM,,> 100 µM
N=c1ccn(O)cc1/C=C1/C(=O)Nc2ccccc21,> 100 µM,> 100 µM,> 100 µM,> 100 µM,> 100 µM,> 100 µM,> 100 µM,> 100 µM,> 100 µM,> 100 µM,> 100 µM,> 100 µM,> 100 µM,> 100 µM,> 100 µM,> 100 µM,> 100 µM,> 100 µM,> 100 µM,> 100 µM
CN(Cc1ccccc1)c1ccc(CO)c(Cl)c1,25.3 µM,> 100 µM,2.54 µM,43.6 µM,15 µM,> 100 µM,3.9 µM,37.4 µM,29 µM,> 100 µM,28.6 µM,> 100 µM,0.432 µM,1.69 µM,27.8 µM,> 100 µM,0.595 µM,3.08 µM,22 µM,98.8 µM
S=C(Nc1ccc(-c2nc3ccccc3[nH]2)cc1)Nc1ccc(-c2nc3ccccc3[nH]2)cc1,61.1 µM,> 100 µM,> 100 µM,> 100 µM,31.7 µM,> 100 µM,> 100 µM,> 100 µM,60.3 µM,> 100 µM,> 100 µM,> 100 µM,> 100 µM,> 100 µM,> 100 µM,> 100 µM,> 100 µM,> 100 µM,> 100 µM,> 100 µM
NCCCCCCCn1c2c(c3ccccc3c1=O)C(=O)c1ccccc1-2,1.53 µM,5.2 µM,2.34 µM,6.58 µM,1.29 µM,2.73 µM,0.808 µM,2.44 µM,1.68 µM,3.06 µM,1.32 µM,2.72 µM,2.19 µM,4.09 µM,0.915 µM,2.12 µM,1.7 µM,3.97 µM,10 µM,21.7 µM
Cc1nnc(-c2cccc(-c3ccc(C(=O)NCC4CC4)cc3)c2)o1,> 25 µM,> 25 µM,> 25 µM,> 25 µM,> 25 µM,> 25 µM,> 25 µM,> 25 µM,> 25 µM,> 25 µM,> 25 µM,> 25 µM,> 25 µM,> 25 µM,> 25 µM,> 25 µM,> 25 µM,> 25 µM,> 25 µM,> 25 µM
O=C(Nc1ccncc1)C(=O)c1cn(S(=O)(=O)c2ccc(Cl)cc2)c2ccccc12,0.45 µM,> 100 µM,3.89 µM,> 70.3 µM,9.18 µM,> 100 µM,1.12 µM,19.9 µM,0.634 µM,> 52.1 µM,1.4 µM,> 55.5 µM,1.1 µM,> 100 µM,3.43 µM,> 49.7 µM,> 30.1 µM,> 95.8 µM,2.62 µM,> 100 µM
CC1CCCC(C(O)CC2CC(=O)NC(=O)C2)C1O (stereo not drawn),,> 100 µM,,> 100 µM,,> 100 µM,,> 100 µM,,> 100 µM,,> 100 µM,,> 100 µM,,> 100 µM,,> 100 µM,,> 100 µM
CC(C)=CCC[C@](C)(O)[C@H]1CC[C@]2(C)[C@@H]1CC[C@@H]1[C@@]3(C)CC/C(=N/O)C(C)(C)[C@@H]3CC[C@]12C,10.6 µM,> 100 µM,13.9 µM,> 100 µM,16.9 µM,> 100 µM,7.48 µM,26.2 µM,16.3 µM,> 100 µM,7.87 µM,35.9 µM,29.5 µM,> 100 µM,13.8 µM,> 100 µM,22.2 µM,> 100 µM,10.1 µM,> 100 µM
O=C(Cc1ccc(F)c(F)c1)Nc1cc(C2(C(F)(F)F)CC2)nn1Cc1ccccc1,4.03 µM,> 15 µM,3.34 µM,> 15 µM,2.99 µM,10.5 µM,2.32 µM,8.75 µM,5.66 µM,> 15 µM,4.67 µM,> 15 µM,3.61 µM,12.4 µM,5.34 µM,> 15 µM,4 µM,> 15 µM,2.98 µM,12.2 µM
O=C(O)C1(C(=O)O)CCC1.[NH2-].[NH2-].[Pt+2],> 250 µM,> 250 µM,84 µM and 120 µM,221 µM and > 250 µM,167 µM and 84.1 µM,> 242 µM,125 µM and 106 µM,222 µM and 246 µM,109 µM and 184 µM,248 µM and > 250 µM,> 250 µM,> 250 µM,129 µM and > 229 µM,250 µM and > 250 µM,121 µM and 94.6 µM,> 250 µM,233 µM and > 250 µM,> 250 µM,194 µM and > 250 µM,> 250 µM
COc1cc(N(C)C)c(OC)cc1/C=C\c1ccnc2ccccc12,,> 10 µM,,> 10 µM,,> 10 µM,,9.42 µM,,> 10 µM,,> 10 µM,,> 10 µM,,> 10 µM,,> 10 µM,,> 10 µM
[N-]=[N+]=NCCCCCC(=O)OC(C(=O)c1ccccc1)c1cccc(OCC(=O)NCCOCCOCCNC(=O)CCCC[C@@H]2SC[C@@H]3NC(=O)N[C@@H]32)c1 (stereo partly drawn),> 100 µM,> 100 µM,> 100 µM,> 100 µM,> 100 µM,> 100 µM,34.9 µM,> 100 µM,> 100 µM,> 100 µM,> 100 µM,> 100 µM,> 100 µM,> 100 µM,> 100 µM,> 100 µM,> 100 µM,> 100 µM,> 100 µM,> 100 µM
Cn1cnc([N+](=O)[O-])c1Sc1nc(N)nc2c1ncn2C1CC(O)C(CO)O1 (stereo not drawn),,> 100 µM,,> 83.1 µM,,44.9 µM,,> 100 µM,,> 58.6 µM,,> 100 µM,,> 100 µM,,> 50.8 µM,,> 100 µM,,> 100 µM
O=C(c1ccccc1)C(CN1CCCCC1)c1ccccc1 (stereo not drawn),0.599 µM,2.06 µM,1.54 µM,4.52 µM,1.58 µM,3.07 µM,1.16 µM,3.88 µM,0.865 µM,2.63 µM,1.69 µM,3.83 µM,1.73 µM,4.06 µM,0.681 µM,2.05 µM,2.67 µM,5.43 µM,3.5 µM,16.7 µM
NCC1OC(n2cnc3c(N)ncnc32)CC1O (stereo not drawn),,> 100 µM,,> 100 µM,,> 100 µM,,> 100 µM,,> 100 µM,,> 100 µM,,> 100 µM,,> 100 µM,,> 100 µM,,> 100 µM
COC(=O)c1cc(O)c2cc3c(cc2c1-c1cc(OC)c(OC)c(OC)c1)OCO3,0.738 µM,> 100 µM,> 100 µM,> 100 µM,4.92 µM,> 100 µM,4.19 µM,48.1 µM,0.893 µM,> 100 µM,2.01 µM,> 100 µM,1.8 µM,> 100 µM,2.16 µM,> 100 µM,50.2 µM,> 100 µM,2.63 µM,> 100 µM
CCC/C(=N\NC(=S)N1CC2CCC(CC2)C1)c1ccccn1,,0.716 µM and 2.91 µM,0.119 µM,0.897 µM and 0.702 µM,0.124 µM,4.26 µM and 1.79 µM,0.0362 µM,0.879 µM and 1.34 µM,0.0142 µM,0.598 µM and 0.207 µM,,1.39 µM,,0.197 µM and 1.35 µM,,2.82 µM,1.25 µM,5.64 µM and 3 µM,0.186 µM,
CCN(CC)CC(O)CNc1c2ccc([N+](=O)[O-])cc2nc2cc(OC)c(OC)cc12 (stereo not drawn),0.854 µM,3.6 µM,0.162 µM,0.574 µM,2.21 µM,12.9 µM,0.164 µM,0.642 µM,0.368 µM,1.55 µM,0.329 µM,1.05 µM,1.45 µM,3.83 µM,0.304 µM,1.3 µM,0.306 µM,2.55 µM,0.336 µM,1.85 µM
